Values of other authors as cited in patent publication US12662687B2, “Methods and compositions for the production of xylitol from xylose utilizing dynamic metabolic control” (Duke University, priority 2020, dated 2026).

Molecular target: membrane bound transhydrogenase encoded by the pntAB genes (Escherichia coli, UniProt P07001+P0AB67)
Settings: competitive inhibitor, reported value

Chain of membrane bound transhydrogenase encoded by the pntAB genes (P07001 whole entry): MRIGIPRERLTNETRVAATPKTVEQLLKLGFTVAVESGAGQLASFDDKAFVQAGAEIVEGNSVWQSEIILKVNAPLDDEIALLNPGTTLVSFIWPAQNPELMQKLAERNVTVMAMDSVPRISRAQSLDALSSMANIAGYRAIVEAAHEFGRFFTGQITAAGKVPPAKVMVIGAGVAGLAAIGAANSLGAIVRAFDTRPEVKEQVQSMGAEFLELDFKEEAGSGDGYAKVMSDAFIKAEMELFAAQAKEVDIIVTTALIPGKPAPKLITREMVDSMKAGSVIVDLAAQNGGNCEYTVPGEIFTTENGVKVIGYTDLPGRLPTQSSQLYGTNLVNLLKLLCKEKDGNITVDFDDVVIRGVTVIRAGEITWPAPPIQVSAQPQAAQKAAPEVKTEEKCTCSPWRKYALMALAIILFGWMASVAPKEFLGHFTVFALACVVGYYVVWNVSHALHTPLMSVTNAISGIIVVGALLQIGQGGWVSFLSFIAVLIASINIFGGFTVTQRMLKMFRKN
Chain of membrane bound transhydrogenase encoded by the pntAB genes (P0AB67 whole entry): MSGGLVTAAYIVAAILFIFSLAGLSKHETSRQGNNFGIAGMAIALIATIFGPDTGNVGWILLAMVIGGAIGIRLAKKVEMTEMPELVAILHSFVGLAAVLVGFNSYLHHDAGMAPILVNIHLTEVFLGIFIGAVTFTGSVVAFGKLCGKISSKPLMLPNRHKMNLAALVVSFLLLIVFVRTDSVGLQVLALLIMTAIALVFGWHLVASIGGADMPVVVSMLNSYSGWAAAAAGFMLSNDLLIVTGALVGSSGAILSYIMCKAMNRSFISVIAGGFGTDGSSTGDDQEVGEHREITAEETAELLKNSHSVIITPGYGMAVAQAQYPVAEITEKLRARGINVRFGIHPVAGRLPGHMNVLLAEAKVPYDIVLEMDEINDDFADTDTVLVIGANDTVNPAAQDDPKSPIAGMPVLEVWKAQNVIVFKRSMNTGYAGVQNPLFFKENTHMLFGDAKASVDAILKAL

## CCCCCCCCCCCCCCCC(=O)SCCNC(=O)CCNC(=O)[C@H](O)C(C)(C)COP(=O)(O)OP(=O)(O)OC[C@H]1O[C@@H](n2cnc3c(N)ncnc32)[C@H](O)[C@@H]1OP(=O)(O)O [Palmitoyl-CoA]
  Ki: 1000 to 5000 nM
